Tests used:
Type in all cases: cell-based
Lovo (G13D) cells = experiment: Cell viability assay (CELLTITER-GLO), Lovo cells; details: Homo sapiens, 72 h, 3 days at 37° C., CELLTITER-GLO luminescence, read-out: Inhibition of Cancerous Cells IC50 (μM) Lovo (G13D)
Procedure: (§1) AsPC-1, 1358, and SW48 cells were cultured in RPMI 1640 media supplemented with 10% fetal bovine serum, streptomycin, and penicillin. Lovo and SW480 cells were cultured in DMEM media supplemented with 10% fetal bovine serum, streptomycin, and penicillin. The cell lines were plated in their respective medium supplemented with 2.5% fetal bovine serum, streptomycin, and penicillin. All cell lines were plated in white walled 96-well plates at 2,000 cells/well or 384-well plates at 500 cells/well, except Lovo, which were plated at 4,000 or 1,000 cells/well, respectively. The cells were incubated in DMSO (control) or a compound for 3 days at 37° C. under 5% CO2. A CELLTITER-GLO® reagent (100 μL) was then added to each well. After a 10 min incubation with shaking, luminescence was measured using an ENVISION® multimode plate reader.

SW480 (G12V) cells = experiment: Cell viability assay (CELLTITER-GLO), SW480 cells; details: Homo sapiens, 72 h, 3 days at 37° C., CELLTITER-GLO luminescence, read-out: Inhibition of Cancerous Cells IC50 (μM) SW480 (G12V)
Procedure: as §1

SW48 (wt) cells = experiment: Cell viability assay (CELLTITER-GLO), SW48 cells; details: Homo sapiens, 72 h, 3 days at 37° C., CELLTITER-GLO luminescence, read-out: Inhibition of Cancerous Cells IC50 (μM) SW48 (wt)
Procedure: as §1

H358 (G12C) cells = experiment: Cell viability assay (CELLTITER-GLO), H358 cells; details: Homo sapiens, NCI-H358, 72 h, 3 days at 37° C., CELLTITER-GLO luminescence, read-out: Inhibition of Cancerous Cells IC50 (μM) H358 (G12C)
Procedure: as §1

AsPC-1 (G12D) cells = experiment: Cell viability assay (CELLTITER-GLO), AsPC-1 cells; details: Homo sapiens, ASPC1, 72 h, 3 days at 37° C., CELLTITER-GLO luminescence, read-out: Inhibition of Cancerous Cells IC50 (μM) AsPC-1 (G12D)
Procedure: as §1

COc1cc2c(N[C@H](C)c3cccc(Br)c3)nc(C)nc2cc1OCCCCCCCN1CCN(C(=O)CNc2cccc(C3CCC(=O)NC3=O)c2)CC1 (stereo partly drawn) [Compound B1, 3-(3-((2-(4-(7-((4-(((R)-1-(3-bromophenyl)ethyl)amino)-6-methoxy-2-methylquinazolin-7-yl)oxy)heptyl)piperazin-1-yl)-2-oxoethyl)amino)phenyl)piperidine-2,6-dione]
IC50 (Lovo (G13D) cells): 0.34 µM | IC50 (SW480 (G12V) cells): 0.66 µM | IC50 (SW48 (wt) cells): 1.1 µM | IC50 (H358 (G12C) cells): 1.1 µM

COc1cc2c(N[C@H](C)c3cccc(Br)c3)nc(C)nc2cc1OCCCCCCCCCCCN1CCN(C(=O)CNc2cccc(C3CCC(=O)NC3=O)c2)CC1 (stereo partly drawn) [Compound B3, 3-(3-((2-(4-(11-((4-(((R)-1-(3-Bromophenyl)ethyl)amino)-6-methoxy-2-methyl-quinazolin-7-yl)oxy)undecyl)piperazin-1-yl)-2-oxoethyl)amino)phenyl)piperidine-2,6-dione]
IC50 (Lovo (G13D) cells): 0.55 µM | IC50 (SW480 (G12V) cells): 0.48 µM | IC50 (SW48 (wt) cells): 1.7 µM | IC50 (H358 (G12C) cells): 2.9 µM

COc1cc2c(N[C@H](C)c3cccc(Br)c3)nc(C)nc2cc1OCCCCCCCN1CCN(C(=O)CNc2ccc(C3CCC(=O)NC3=O)cc2)CC1 (stereo partly drawn) [Compound B4, 3-(4-((2-(4-(7-((4-(((R)-1-(3-bromophenyl)ethyl)amino)-6-methoxy-2-methylquinazolin-7-yl)oxy)heptyl)piperazin-1-yl)-2-oxoethyl)amino)phenyl)piperidine-2,6-dione]
IC50 (Lovo (G13D) cells): 0.23 µM | IC50 (SW480 (G12V) cells): 0.49 µM | IC50 (SW48 (wt) cells): 1.1 µM | IC50 (H358 (G12C) cells): 0.93 µM

COc1cc2c(N[C@H](C)c3cccc(Br)c3)nc(C)nc2cc1OCCCCCCCCCN1CCN(C(=O)CNc2ccc(C3CCC(=O)NC3=O)cc2)CC1 (stereo partly drawn) [Compound B5, 3-(4-((2-(4-(9-((4-(((R)-1-(3-Bromophenyl)ethyl)amino)-6-methoxy-2-methyl-quinazolin-7-yl)oxy)nonyl)piperazin-1-yl)-2-oxoethyl)amino)phenyl)piperidine-2,6-dione]
IC50 (Lovo (G13D) cells): 0.19 µM | IC50 (SW480 (G12V) cells): 0.45 µM | IC50 (SW48 (wt) cells): 1.2 µM | IC50 (H358 (G12C) cells): 2 µM

COc1cc2c(N[C@H](C)c3cccc(Br)c3)nc(C)nc2cc1OCCCCCCCCCCCN1CCN(C(=O)CNc2ccc(C3CCC(=O)NC3=O)cc2)CC1 (stereo partly drawn) [Compound B6, 3-(4-((2-(4-(11-((4-(((R)-1-(3-bromophenyl)ethyl)amino)-6-methoxy-2-methyl-quinazolin-7-yl)oxy)undecyl)piperazin-1-yl)-2-oxoethyl)amino)phenyl)piperidine-2,6-dione]
IC50 (Lovo (G13D) cells): 0.48 µM | IC50 (SW480 (G12V) cells): 0.3 µM | IC50 (SW48 (wt) cells): 3.7 µM | IC50 (H358 (G12C) cells): 2.1 µM

COc1cc2c(N[C@H](C)c3cccc(Br)c3)nc(C)nc2cc1OCCCCCN1CCN(C(=O)CNc2ccc(C3CCC(=O)NC3=O)cc2)CC1 (stereo partly drawn) [Compound B8, 3-(4-((2-(4-(5-((4-(((R)-1-(3-Bromophenyl)ethyl)amino)-6-methoxy-2-methyl-quinazolin-7-yl)oxy)pentyl)piperazin-1-yl)-2-oxoethyl)amino)phenyl)piperidine-2,6-dione]
IC50 (Lovo (G13D) cells): 1.3 µM | IC50 (SW480 (G12V) cells): 1.1 µM | IC50 (SW48 (wt) cells): 1.1 µM | IC50 (H358 (G12C) cells): 1.7 µM | IC50 (AsPC-1 (G12D) cells): 2.8 µM

COc1cc2c(N[C@H](C)c3cccc(Br)c3)nc(C)nc2cc1OCCCCCCCN1CCN(C(=O)COc2ccc(N3CCC(=O)NC3=O)cc2)CC1 [Compound C1, (R)-1-(4-(2-(4-(7-((4-((1-(3-Bromophenyl)ethyl)amino)-6-methoxy-2-methyl-quinazolin-7-yl)oxy)heptyl)piperazin-1-yl)-2-oxoethoxy)phenyl)dihydropyrimidine-2,4(1H,3H)-dione]
IC50 (Lovo (G13D) cells): 0.69 µM | IC50 (SW480 (G12V) cells): 1.7 µM | IC50 (SW48 (wt) cells): 2.2 µM | IC50 (H358 (G12C) cells): 1.9 µM | IC50 (AsPC-1 (G12D) cells): 2.3 µM

COc1cc2c(N[C@H](C)c3cccc(Br)c3)nc(C)nc2cc1OCCCCCCCCCN1CCN(C(=O)COc2ccc(N3CCC(=O)NC3=O)cc2)CC1 [Compound C2, (R)-1-(4-(2-(4-(9-((4-((1-(3-Bromophenyl)ethyl)amino)-6-methoxy-2-methyl-quinazolin-7-yl)oxy)nonyl)piperazin-1-yl)-2-oxoethoxy)phenyl)dihydropyrimidine-2,4(1H,3H)-dione]
IC50 (Lovo (G13D) cells): 0.55 µM | IC50 (SW480 (G12V) cells): 0.66 µM | IC50 (SW48 (wt) cells): 1.6 µM | IC50 (H358 (G12C) cells): 1.4 µM | IC50 (AsPC-1 (G12D) cells): 1.6 µM

COc1cc2c(N[C@H](C)c3cccc(Br)c3)nc(C)nc2cc1OCCCCCCCCCCCN1CCN(C(=O)COc2ccc(N3CCC(=O)NC3=O)cc2)CC1 [Compound C3, (R)-1-(4-(2-(4-(11-((4-((1-(3-Bromophenyl)ethyl)amino)-6-methoxy-2-methyl-quinazolin-7-yl)oxy)undecyl)piperazin-1-yl)-2-oxoethoxy)phenyl)dihydropyrimidine-2,4(1H,3H)-dione]
IC50 (Lovo (G13D) cells): 0.93 µM | IC50 (SW480 (G12V) cells): 0.66 µM | IC50 (SW48 (wt) cells): 2.1 µM | IC50 (H358 (G12C) cells): 3.4 µM | IC50 (AsPC-1 (G12D) cells): 2.1 µM

COc1cc2c(N[C@H](C)c3cccc(Br)c3)nc(C)nc2cc1OCCCCCCCN1CCN(C(=O)COc2cccc(N3CCC(=O)NC3=O)c2)CC1 [Compound C4, (R)-1-(3-(2-(4-(7-((4-((1-(3-Bromophenyl)ethyl)amino)-6-methoxy-2-methyl-quinazolin-7-yl)oxy)heptyl)piperazin-1-yl)-2-oxoethoxy)phenyl)dihydropyrimidine-2,4(1H,3H)-dione]
IC50 (Lovo (G13D) cells): 0.94 µM | IC50 (SW480 (G12V) cells): 0.73 µM | IC50 (SW48 (wt) cells): 1.3 µM | IC50 (H358 (G12C) cells): 1.2 µM | IC50 (AsPC-1 (G12D) cells): 1.4 µM

COc1cc2c(N[C@H](C)c3cccc(Br)c3)nc(C)nc2cc1OCCCCCCCN1CCN(C(=O)CNc2ccc3c(C4CCC(=O)NC4=O)nn(C)c3c2)CC1 (stereo partly drawn) [Compound D1, 3-(6-((2-(4-(7-((4-(((R)-1-(3-Bromophenyl)ethyl)amino)-6-methoxy-2-methyl-quinazolin-7-yl)oxy)heptyl)piperazin-1-yl)-2-oxoethyl)amino)-1-methyl-1H-indazol-3-yl)-piperidine-2,6-dione]
IC50 (Lovo (G13D) cells): 1.1 µM | IC50 (SW480 (G12V) cells): 1.4 µM | IC50 (SW48 (wt) cells): 1.8 µM | IC50 (H358 (G12C) cells): 2.9 µM

COc1cc2c(N[C@H](C)c3cccc(Br)c3)nc(C)nc2cc1OCCCCCCCCCN1CCN(C(=O)CNc2ccc3c(C4CCC(=O)NC4=O)nn(C)c3c2)CC1 (stereo partly drawn) [Compound D2, 3-(6-((2-(4-(9-((4-(((R)-1-(3-bromophenyl)ethyl)amino)-6-methoxy-2-methylquinazolin-7-yl)oxy)nonyl)piperazin-1-yl)-2-oxoethyl)amino)-1-methyl-1H-indazol-3-yl)piperidine-2,6-dione]
IC50 (Lovo (G13D) cells): 0.55 µM | IC50 (SW480 (G12V) cells): 0.97 µM | IC50 (SW48 (wt) cells): 1.2 µM | IC50 (H358 (G12C) cells): 1.7 µM

COc1cc2c(N[C@H](C)c3cccc(Br)c3)nc(C)nc2cc1OCCCCCCCCCCCN1CCN(C(=O)CNc2ccc3c(C4CCC(=O)NC4=O)nn(C)c3c2)CC1 (stereo partly drawn) [Compound D3, 3-(6-((2-(4-(11-((4-(((R)-1-(3-Bromophenyl)ethyl)amino)-6-methoxy-2-methyl-quinazolin-7-yl)oxy)undecyl)piperazin-1-yl)-2-oxoethyl)amino)-1-methyl-1H-indazol-3-yl)-piperidine-2,6-dione]
IC50 (Lovo (G13D) cells): 0.64 µM | IC50 (SW480 (G12V) cells): 0.61 µM | IC50 (SW48 (wt) cells): 0.48 µM | IC50 (H358 (G12C) cells): 1.4 µM

COc1cc2c(N[C@H](C)c3cccc(Br)c3)nc(C)nc2cc1OCCCCCCCN1CCN(C(=O)CNc2cccc3c(C4CCC(=O)NC4=O)nn(C)c23)CC1 (stereo partly drawn) [Compound D4, 3-(7-((2-(4-(7-((4-(((R)-1-(3-Bromophenyl)ethyl)amino)-6-methoxy-2-methyl-quinazolin-7-yl)oxy)heptyl)piperazin-1-yl)-2-oxoethyl)amino)-1-methyl-1H-indazol-3-yl)-piperidine-2,6-dione]
IC50 (Lovo (G13D) cells): 0.37 µM | IC50 (SW480 (G12V) cells): 0.65 µM | IC50 (SW48 (wt) cells): 0.85 µM | IC50 (H358 (G12C) cells): 1.6 µM

COc1cc2c(N[C@H](C)c3cccc(Br)c3)nc(C)nc2cc1OCCCCCCCCCN1CCN(C(=O)CNc2cccc3c(C4CCC(=O)NC4=O)nn(C)c23)CC1 (stereo partly drawn) [Compound D5, 3-(7-((2-(4-(9-((4-(((R)-1-(3-Bromophenyl)ethyl)amino)-6-methoxy-2-methyl-quinazolin-7-yl)oxy)nonyl)piperazin-1-yl)-2-oxoethyl)amino)-1-methyl-1H-indazol-3-yl)-piperidine-2,6-dione]
IC50 (Lovo (G13D) cells): 0.42 µM | IC50 (SW480 (G12V) cells): 0.94 µM | IC50 (SW48 (wt) cells): 1.5 µM | IC50 (H358 (G12C) cells): > 10 µM

COc1cc2c(N[C@H](C)c3cccc(Br)c3)nc(C)nc2cc1OCCCCCCCCCCCN1CCN(C(=O)CNc2cccc3c(C4CCC(=O)NC4=O)nn(C)c23)CC1 (stereo partly drawn) [Compound D6, 3-(7-((2-(4-(11-((4-(((R)-1-(3-Bromophenyl)ethyl)amino)-6-methoxy-2-methylquinazolin-7-yl)oxy)undecyl)piperazin-1-yl)-2-oxoethyl)amino)-1-methyl-1H-indazol-3-yl)piperidine-2,6-dione]
IC50 (Lovo (G13D) cells): 0.76 µM | IC50 (SW480 (G12V) cells): 1.7 µM | IC50 (SW48 (wt) cells): 2.4 µM | IC50 (H358 (G12C) cells): 6.4 µM
